Among the data in patent publication US20110190503A1, “Thiazolopyridin-2-yloxy-phenyl and thiazolopyrazin-2-yloxy-phenyl amines as modulators of leukotriene A4 hydrolase” (Janssen Pharmaceutical NV, priority 2008, published 2011) are IC50 values, retold here.

Like-named read-outs stand apart in the source and are kept apart here.

The target in assay [1] is T1, recombinant human LTA4 hydrolase (rhLTA4H) (Homo sapiens, UniProt P09960).
T1 construct: made in house; host or cells: Spodoptera frugiperda (Sf-9) cells, recombinant baculovirus (pFastBac1)
T1 sequence (P09960 1-611): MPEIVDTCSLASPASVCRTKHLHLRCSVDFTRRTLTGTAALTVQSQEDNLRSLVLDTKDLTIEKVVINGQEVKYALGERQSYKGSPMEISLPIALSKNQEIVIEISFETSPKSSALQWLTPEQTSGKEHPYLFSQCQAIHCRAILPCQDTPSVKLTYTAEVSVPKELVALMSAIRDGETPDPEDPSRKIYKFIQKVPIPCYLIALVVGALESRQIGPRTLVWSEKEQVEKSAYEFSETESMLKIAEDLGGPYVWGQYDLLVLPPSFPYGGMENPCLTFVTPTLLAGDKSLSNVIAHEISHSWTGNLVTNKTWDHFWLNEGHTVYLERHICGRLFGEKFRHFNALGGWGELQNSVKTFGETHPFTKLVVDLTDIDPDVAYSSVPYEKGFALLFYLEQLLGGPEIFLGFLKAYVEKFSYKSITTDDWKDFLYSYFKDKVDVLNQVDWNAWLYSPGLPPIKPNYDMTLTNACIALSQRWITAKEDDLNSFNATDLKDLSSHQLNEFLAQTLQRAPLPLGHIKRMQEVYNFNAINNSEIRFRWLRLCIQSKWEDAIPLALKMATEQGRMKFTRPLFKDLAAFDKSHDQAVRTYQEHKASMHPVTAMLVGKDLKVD
Nature of the assay: Recombinant human LTA4 hydrolase assay for LTA4 hydrolase inhibitor activity. In kind it is biochemical. In short, it runs like this: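 LTB4 formed from LTA4 substrate (free acid from the methyl ester) was quantified by enzyme immunoassay after a 30 min rt reaction. Enzyme was 10 ng Sf-9-expressed human LTA4 hydrolase, pre-incubated 10 min with compound.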

Assay [2] has as its system LTB4 production by calcium ionophore-stimulated murine blood. Nature of the assay: LTB4 production by calcium ionophore-stimulated murine blood for LTA4H inhibitor activity. The following applies: Mus musculus. In kind it is cell-based, CD-1 mice. In short, it runs like this:
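LTB4 quantified by EIA in supernatants after murine (CD-1) heparinized whole blood was exposed to compound for 15 min, then to 7 μg/mL (final) A23187 for 30 min, all at 37° C. Reported values: single runs or means; three or more runs include SD.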

In assay [3] the test system is LTB4 production by calcium ionophore-stimulated human blood. Nature of the assay: LTB4 production by calcium ionophore-stimulated human blood for LTA4H inhibitor activity. In kind it is cell-based. The protocol: Assay 3: LTB4 Production by Calcium Ionophore-Stimulated Human Blood for LTA4H Inhibitor Activity
Human blood was collected from healthy donors in heparin-containing syringes. The blood was diluted 1:1 with RPMI-1640 medium, and 200-μL aliquots of the diluted blood were added to wells of a 96-well microtiter plate. LTA4H inhibitor test compounds were prepared at different concentrations in RPMI-1640 medium containing 1% DMSO, and 20 μL of each test solution was added to a well containing diluted whole blood (final DMSO concentration of 0.1%). After the microtiter plate contents were incubated for 15 min at 37° C. in a humidified incubator, calcium ionophore A23187 (Sigma Chemical Co., St. Louis, Mo.) was added to each sample well (final concentration=7 μg/mL). The incubation was continued under the same conditions for an additional 30 min to allow LTB4 formation. The reaction was terminated by centrifugation (833×g, 10 min at 4° C.), and supernatants were analyzed for LTB4 by a commercially available enzyme-linked immunoassay (Cayman Chemical Co.) according to the manufacturer's instructions. Positive controls, under essentially identical conditions but without addition of an inhibitor compound, and negative unstimulated controls, containing all assay components except calcium ionophore, were routinely run in each experiment. IC50 values for compounds tested in this assay were determined by nonlinear regression of the activity data at different compound concentrations using Graphpad Prism 4.0, one site binding competition, and are presented in Table 3. The number of determinations made is indicated in parentheses following each value.

The mark [4] stands for this setting: rhLTA4H, LTA4 substrate, LTB4 by immunoassay, single determination or average, read-out: IC50.
The mark [5] stands for this setting: murine blood diluted 1 in 15, calcium ionophore A23187, LTB4 by immunoassay, read-out: IC50.
Where [6] appears, read: human blood diluted 1:1, calcium ionophore A23187, LTB4 by immunoassay, n in parentheses, read-out: IC50.

Turning to `O=C1CCCN1C1CCN(Cc2ccc(Oc3nc4ncccc4s3)cc2)CC1` [Example 83, 1-{1-[4-([1,3]Thiazolo[4,5-b]pyridin-2-yloxy)benzyl]piperidin-4-yl}pyrrolidin-2-one], the IC50 was found to be 6.3 nM in assay [1] (setting [4]), 55 nM in assay [2] (setting [5]) and 134 nM in assay [3] (setting [6]).
The corresponding values for `NC(=O)N1C[C@H]2C[C@@H]1CN2Cc1ccc(Oc2nc3ncccc3s2)cc1` [Example 266, (1R,4R)-5-[4-([1,3]Thiazolo[4,5-b]pyridin-2-yloxy)benzyl]-2,5-diazabicyclo[2.2.1]heptane-2-carboxamide] are 2 nM, 140 nM and 154 nM.
For `CC(=O)N1C[C@@H]2C[C@H]1CN2CCOc1ccc(Oc2nc3ncccc3s2)cc1` [Example 14, 2-(4-{2-[(1S,4S)-5-Acetyl-2,5-diazabicyclo[2.2.1]hept-2-yl]ethoxy}phenoxy)[1,3]thiazolo[4,5-b]pyridine], the IC50 in assay [1] (setting [4]) stood at 7.5 ± 4.6 nM; in assay [2] (setting [5]) it was 18 ± 13 nM; in assay [3] (setting [6]), 79 nM.
The corresponding values for `CC(=O)N1C[C@@H]2C[C@H]1CN2Cc1ccc(Oc2nc3ncc(C)cc3s2)cc1` [Example 121, 2-(4-{[(1S,4S)-5-Acetyl-2,5-diazabicyclo[2.2.1]hept-2-yl]methyl}phenoxy)-6-methyl[1,3]thiazolo[4,5-b]pyridine] are 38 ± 17 nM, 120 ± 42 nM and 88 nM.
Consider `CC(=O)N[C@H]1C[C@H]2CC[C@@H](C1)N2Cc1ccc(Oc2nc3ncccc3s2)cc1` [Example 116, meso-N-{(3-endo)-8-[4-([1,3]Thiazolo[4,5-b]pyridin-2-yloxy)benzyl]-8-azabicyclo[3.2.1]oct-3-yl}acetamide], for which the IC50 stood at 1 ± 0.51 nM in assay [1], 22 ± 17 nM in assay [2] and 19 nM in assay [3] (Homo sapiens).
In the case of `NC(=O)N1C[C@@H]2C[C@H]1CN2CCc1ccc(Oc2nc3ncccc3s2)cc1` [Example 45, (1S,4S)-5-{2-[4-([1,3]Thiazolo[4,5-b]pyridin-2-yloxy)phenyl]ethyl}-2,5-diazabicyclo[2.2.1]heptane-2-carboxamide], the IC50 amounted to 3.9 nM in assay [1] (setting [4]), 170 nM in assay [2] (setting [5]) and 256 nM in assay [3] (setting [6]).
The corresponding values for `NC(=O)N1C[C@@H]2C[C@H]1CN2Cc1ccc(Oc2nc3ncccc3s2)cc1` [Example 106, (1S,4S)-5-[4-([1,3]Thiazolo[4,5-b]pyridin-2-yloxy)benzyl]-2,5-diazabicyclo[2.2.1]heptane-2-carboxamide] are 3.5 nM, 79 nM and 141 nM.
In the same order, the values of `CC(=O)N1CC2CN(CCc3ccc(Oc4nc5ncccc5s4)cc3)CC2C1` (stereo not drawn) [Example 73, 2-{4-[2-(5-Acetylhexahydropyrrolo[3,4-c]pyrrol-2(1H)-yl)ethyl]phenoxy}[1,3]thiazolo[4,5-b]pyridine] are 12 nM, 50 nM and 227 nM.
The corresponding values for `CC(=O)N1C[C@H]2C[C@@H]1CN2Cc1ccc(Oc2nc3ncccc3s2)cc1` [Example 265, 2-(4-{[(1R,4R)-5-Acetyl-2,5-diazabicyclo[2.2.1]hept-2-yl]methyl}phenoxy)[1,3]thiazolo[4,5-b]pyridine] are 11 nM, 23 nM and 72 nM.
With `CC(=O)N1C[C@@H]2C[C@H]1CN2CCc1ccc(Oc2nc3ncccc3s2)cc1` [Example 75, 2-(4-{2-[(1S,4S)-5-Acetyl-2,5-diazabicyclo[2.2.1]hept-2-yl]ethyl}phenoxy)[1,3]thiazolo[4,5-b]pyridine], the IC50 in assay [1] (setting [4]) came to 12 nM; in assay [2] (setting [5]), 44 nM; in assay [3] (setting [6]), 299 nM.
In the same order, the values of `O=C1CCCN1C1CCN(CCOc2ccc(Oc3nc4ncccc4s3)cc2)CC1` [Example 32, 1-(1-{2-[4-([1,3]Thiazolo[4,5-b]pyridin-2-yloxy)phenoxy]ethyl}piperidin-4-yl)pyrrolidin-2-one] are 8.9 nM, 22 nM and 8 nM.
In the same order, the values of `CC(=O)N1C[C@H]2CC[C@@H](C1)N2CCc1ccc(Oc2nc3ncccc3s2)cc1` [Example 55, meso-2-(4-{2-[3-Acetyl-3,8-diazabicyclo[3.2.1]oct-8-yl]ethyl}phenoxy)[1,3]thiazolo[4,5-b]pyridine] are 4.8 nM, 55 nM and 99 nM.
The corresponding values for `NC(=O)C1CCN(CCOc2ccc(Oc3nc4ncccc4s3)cc2)CC1` [Example 31, 1-{2-[4-([1,3]Thiazolo[4,5-b]pyridin-2-yloxy)phenoxy]ethyl}piperidine-4-carboxamide] are 29 nM, 31 nM and 53 nM.
Take `CC(=O)N[C@@H]1C[C@H]2CC[C@@H](C1)N2Cc1ccc(Oc2nc3ncccc3s2)cc1` [Example 109, meso-N-{(3-exo)-8-[4-([1,3]Thiazolo[4,5-b]pyridin-2-yloxy)benzyl]-8-azabicyclo[3.2.1]oct-3-yl}acetamide]: the IC50 in assay [1] amounted to 0.97 nM; in assay [2] it was 60 nM; in assay [3] (Homo sapiens), 87 nM.
Regarding `CC(=O)N1C[C@H]2C[C@@H]1CN2CCOc1ccc(Oc2nc3ncccc3s2)cc1` [Example 267, 2-(4-{2-[(1R,4R)-5-Acetyl-2,5-diazabicyclo[2.2.1]hept-2-yl]ethoxy}phenoxy)[1,3]thiazolo[4,5-b]pyridine], the IC50 in assay [1] (setting [4]) was determined as 3 nM; in assay [2] (setting [5]), 110 nM; in assay [3] (setting [6]) it was 57 nM.
